Peptide text beside a SMILES is read from it.
Test system: Botrytis cinerea (B05.10)
Experiment: Resazurin antifungal assay of 23 alpha-factor peptides (dimers, hybrids) towards Botrytis (Example 15, Table 6)
Format: cell-based
Settings: resazurin assay, % inhibition of fungal growth, Botrytis cinerea B05.10; for Inhibition at 10 μM: peptide 10 μM; for Inhibition at 20 μM: peptide 20 μM; for Inhibition at 50 μM: peptide 50 μM
Description: The antifungal activity of […] alpha-factor peptide variants towards Botrytis was tested. Experimental design:
Peptides corresponding to SEQ ID NO: 261-264 and 401-420 were chemically synthesized using the solid-phase synthesis method and resuspended in water to a stock solution of 1 mM. The stock solution was aliquoted in cryovials and stored at −80° C.
The Botrytis cinerea culture (B05.10) isolate was acquired from the Centraalbureau voor Schimmelcultures, the Netherlands. The Botrytis fungus was propagated on 0.5% V8 agar plates (200 ml V8 Juice, 3 g CaCO3, 15 g agar, 800-ml millipore water) at 20° C., in a 12 h photoperiod for 21 days.
Fungal conidia were harvested by scraping a Botrytis plate flooded with 1 ml water with 0.1% Tween 80 solution. Conidia were then collected in a 50 ml falcon tube by passing the solution through a 40 micron filter. The solution was then centrifuged at 6000 rpm and the pellet was resuspended in 1 ml of 20% glycerol. The conidia concentration of the resulting solution was counted using a hemocytometer. The stock was diluted to […] using 20% glycerol and frozen in 100 μl aliquots in −80° C. until further use.
Peptides were tested for activity against Botrytis, using the resazurin assay. For this, fungal stock conidia was first diluted to 5000 conidia/well. 50 μl of the spore suspension was added to each well of the sterile 96-well clear bottom testing plate and mixed with 50 μl of peptide solutions to a final concentration of 100, 50, 20, 10, 5 and 2.5 μM. The plate was incubated for 24 h at 20° C. After 24 h, 10 μl of resazurin dye was added to the microtiter plate and incubated again for […]. Fluorescence was measured at 570/620 nm after 4 h of incubation with resazurin.
Growth inhibition was calculated by subtracting the fluorescence values of conidia only wells from sample wells and depicted as % inhibition of fungal growth. Four technical replicates were used for all treatments.

Row | Compound | Inhibition at 2.5 μM (peptide 2.5 μM) | Inhibition at 5 μM (peptide 5 μM) | Inhibition at 10 μM | Inhibition at 20 μM | Inhibition at 50 μM | Inhibition at 100 μM (peptide 100 μM)
1 | CSCC[C@H](NC(=O)[C@H](CO)NC(=O)[C@H](CCC(N)=O)NC(=O)CNC(=O)[C@H](CCCNC(=N)N)NC(=O)[C@H](CCCCN)NC(=O)[C@H](CC(C)C)NC(=O)[C@@H](NC(=O)[C@H](CC(C)C)NC(=O)[C@@H](NC(=O)[C@@H](NC(=O)[C@@H](N)Cc1c[nH]c2ccccc12)[C@@H](C)O)C(C)C)[C@@H](C)O)C(=O)N[C@@H](Cc1ccc(O)cc1)C(=O)O [compound 409] (H-WTVLTLKRGQSMY-OH; N-terminus and C-terminus assumed) | <90% | <90% | 97.7% | 100% | 100% | 
2 | CSCC[C@H](NC(=O)[C@@H]1CCCN1C(=O)[C@H](CCC(N)=O)NC(=O)CNC(=O)[C@@H]1CCCN1C(=O)[C@H](CCCNC(=N)N)NC(=O)[C@H](Cc1ccccc1)NC(=O)[C@H](CCCNC(=N)N)NC(=O)[C@H](CC(C)C)NC(=O)[C@H](Cc1c[nH]c2ccccc12)NC(=O)[C@H](Cc1c[nH]cn1)NC(=O)[C@@H](N)CCCCN)C(=O)N[C@@H](Cc1ccc(O)cc1)C(=O)O [compound 410] (H-KHWLRFRPGQPMY-OH; N-terminus and C-terminus assumed) |  |  | <90% | 100% | 100% | 
3 | CSCC[C@H](NC(=O)[C@@H]1CCCN1C(=O)[C@H](CCC(N)=O)NC(=O)CNC(=O)[C@@H]1CCCN1C(=O)[C@H](Cc1c[nH]c2ccccc12)NC(=O)[C@H](Cc1ccccc1)NC(=O)[C@H](CCCNC(=N)N)NC(=O)[C@H](CC(C)C)NC(=O)[C@H](Cc1c[nH]c2ccccc12)NC(=O)[C@H](Cc1c[nH]cn1)NC(=O)[C@@H](N)CCCCN)C(=O)N[C@@H](Cc1ccc(O)cc1)C(=O)O [compound 411] (H-KHWLRFWPGQPMY-OH; N-terminus and C-terminus assumed) |  |  | <90% | <90% | 100% | 
4 | CC[C@H](C)[C@H](NC(=O)[C@H](CCCNC(=N)N)NC(=O)[C@H](CC(C)C)NC(=O)[C@H](Cc1c[nH]c2ccccc12)NC(=O)[C@H](Cc1c[nH]cn1)NC(=O)[C@@H](N)CCCCN)C(=O)N[C@@H](Cc1c[nH]c2ccccc12)C(=O)N1CCC[C@H]1C(=O)NCC(=O)N[C@@H](CCC(N)=O)C(=O)N1CCC[C@H]1C(=O)N[C@@H](CCSC)C(=O)N[C@@H](Cc1ccc(O)cc1)C(=O)O [compound 412] (H-KHWLRIWPGQPMY-OH; N-terminus and C-terminus assumed) |  |  | <90% | <90% | 100% | 
5 | CSCC[C@H](NC(=O)[C@H](Cc1ccc(O)cc1)NC(=O)[C@H](CCCNC(=N)N)NC(=O)[C@H](CCCNC(=N)N)NC(=O)[C@H](CCCNC(=N)N)NC(=O)[C@H](CCCNC(=N)N)NC(=O)[C@H](CCCNC(=N)N)NC(=O)[C@H](CCCNC(=N)N)NC(=O)[C@H](CCCNC(=N)N)NC(=O)[C@@H](N)CCCNC(=N)N)C(=O)N1CCC[C@H]1C(=O)N[C@@H](CCC(N)=O)C(=O)NCC(=O)N1CCC[C@H]1C(=O)N[C@@H](CCCCN)C(=O)N[C@@H](CC(C)C)C(=O)N[C@@H](CCC(N)=O)C(=O)N[C@@H](CC(C)C)C(=O)N[C@@H](Cc1c[nH]c2ccccc12)C(=O)N[C@@H](Cc1c[nH]cn1)C(=O)N[C@@H](Cc1c[nH]c2ccccc12)C(=O)O [compound 420] (H-RRRRRRRRYMPQGPKLQLWHW-OH; N-terminus and C-terminus assumed) |  |  |  |  | 100% | 100%
